Data published in patent publication US11981658B2, “Substituted aminopyridine compounds as EGFR inhibitors” (YUHAN CORPORATION, priority 2021, dated 2024).
Read-outs that look alike come from different tables or passages of the source.

What was measured:
EGFR wildtype (WT) = EGFR wildtype (WT) (Homo sapiens, UniProt P00533); assay: Biochemical EGFR kinase inhibition assay (Lance Ultra TR-FRET), wildtype
Outline: (§1)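 Enzyme reactions lasted 1 hour at room temperature with test compounds between 0.003 and 10 μM, followed by 10 mM EDTA quench.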

EGFR L858R/T790M/C797S = EGFR L858R/T790M/C797S (Homo sapiens, UniProt P00533, C797S/L858R/T790M); assay: Biochemical EGFR kinase inhibition assay (Lance Ultra TR-FRET), triple mutant L858R/T790M/C797S
Outline: as §1

EGFR Del19/T790M/C797S = EGFR Del19/T790M/C797S (Homo sapiens, UniProt P00533, C797S/DEL746-750/T790M); assay: Biochemical EGFR kinase inhibition assay (Lance Ultra TR-FRET), triple mutant del19/T790M/C797S
Outline: as §1

EGFR L858R/C797S = EGFR L858R/C797S (Homo sapiens, UniProt P00533, C797S/L858R); assay: Biochemical EGFR kinase inhibition assay (Lance Ultra TR-FRET), double mutant L858R/C797S
Outline: as §1

EGFR Del19/C797S = EGFR Del19/C797S (Homo sapiens, UniProt P00533, C797S/DEL746-750); assay: Biochemical EGFR kinase inhibition assay (Lance Ultra TR-FRET), double mutant del19/C797S
Outline: as §1

[1] = Km ATP, read-out: IC50 WT (nM) Km ATP
[2] = IC50 L858R/T790M/C797S (nM), 100 μM ATP
[3] = Km ATP, read-out: IC50 L858R/T790M/C797S (nM) Km ATP
[4] = IC50 Del19/T790M/C797S (nM), 100 μM ATP
[5] = Km ATP, read-out: IC50 Del19/T790M/C797S (nM) Km ATP
[6] = IC50 L858R/C797S (nM), 100 μM ATP
[7] = Km ATP, read-out: IC50 L858R/C797S (nM) Km ATP
[8] = IC50 Del19/C797S (nM), 100 μM ATP
[9] = Km ATP, read-out: IC50 Del19/C797S (nM) Km ATP

EGFR Del19/C797S, sequence (P00533 with tags, fused parts or gaps DEL746-750/C797S): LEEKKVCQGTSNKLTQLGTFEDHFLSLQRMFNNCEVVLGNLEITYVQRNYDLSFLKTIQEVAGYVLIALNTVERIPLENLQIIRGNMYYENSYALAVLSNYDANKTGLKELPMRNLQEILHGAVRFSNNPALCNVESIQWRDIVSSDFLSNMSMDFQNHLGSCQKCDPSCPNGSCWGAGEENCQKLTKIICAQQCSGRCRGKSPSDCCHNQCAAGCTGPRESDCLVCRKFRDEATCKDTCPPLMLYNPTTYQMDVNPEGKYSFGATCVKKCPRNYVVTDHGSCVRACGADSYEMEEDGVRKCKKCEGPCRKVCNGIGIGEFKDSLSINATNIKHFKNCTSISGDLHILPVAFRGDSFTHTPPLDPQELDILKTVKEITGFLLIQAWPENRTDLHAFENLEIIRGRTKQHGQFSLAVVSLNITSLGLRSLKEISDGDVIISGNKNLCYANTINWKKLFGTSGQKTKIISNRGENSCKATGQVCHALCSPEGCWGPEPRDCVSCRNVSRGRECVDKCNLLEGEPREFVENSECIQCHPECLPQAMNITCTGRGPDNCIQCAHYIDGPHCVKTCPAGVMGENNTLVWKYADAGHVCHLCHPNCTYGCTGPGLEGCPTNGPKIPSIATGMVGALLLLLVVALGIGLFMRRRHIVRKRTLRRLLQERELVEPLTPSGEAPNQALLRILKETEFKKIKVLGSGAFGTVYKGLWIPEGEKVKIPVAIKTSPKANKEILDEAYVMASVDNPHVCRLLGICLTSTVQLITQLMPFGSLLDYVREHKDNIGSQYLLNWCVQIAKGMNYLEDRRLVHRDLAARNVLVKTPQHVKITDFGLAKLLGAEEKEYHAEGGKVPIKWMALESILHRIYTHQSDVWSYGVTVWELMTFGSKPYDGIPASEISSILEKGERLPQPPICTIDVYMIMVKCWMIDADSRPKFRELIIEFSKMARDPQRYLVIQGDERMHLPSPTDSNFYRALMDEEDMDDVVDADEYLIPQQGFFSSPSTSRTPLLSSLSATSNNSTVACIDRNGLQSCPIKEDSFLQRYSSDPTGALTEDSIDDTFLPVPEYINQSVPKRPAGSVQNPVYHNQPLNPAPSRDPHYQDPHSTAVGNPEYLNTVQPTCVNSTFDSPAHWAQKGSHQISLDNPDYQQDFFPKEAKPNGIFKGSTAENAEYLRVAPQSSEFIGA
EGFR wildtype (WT), sequence (P00533 25-1210): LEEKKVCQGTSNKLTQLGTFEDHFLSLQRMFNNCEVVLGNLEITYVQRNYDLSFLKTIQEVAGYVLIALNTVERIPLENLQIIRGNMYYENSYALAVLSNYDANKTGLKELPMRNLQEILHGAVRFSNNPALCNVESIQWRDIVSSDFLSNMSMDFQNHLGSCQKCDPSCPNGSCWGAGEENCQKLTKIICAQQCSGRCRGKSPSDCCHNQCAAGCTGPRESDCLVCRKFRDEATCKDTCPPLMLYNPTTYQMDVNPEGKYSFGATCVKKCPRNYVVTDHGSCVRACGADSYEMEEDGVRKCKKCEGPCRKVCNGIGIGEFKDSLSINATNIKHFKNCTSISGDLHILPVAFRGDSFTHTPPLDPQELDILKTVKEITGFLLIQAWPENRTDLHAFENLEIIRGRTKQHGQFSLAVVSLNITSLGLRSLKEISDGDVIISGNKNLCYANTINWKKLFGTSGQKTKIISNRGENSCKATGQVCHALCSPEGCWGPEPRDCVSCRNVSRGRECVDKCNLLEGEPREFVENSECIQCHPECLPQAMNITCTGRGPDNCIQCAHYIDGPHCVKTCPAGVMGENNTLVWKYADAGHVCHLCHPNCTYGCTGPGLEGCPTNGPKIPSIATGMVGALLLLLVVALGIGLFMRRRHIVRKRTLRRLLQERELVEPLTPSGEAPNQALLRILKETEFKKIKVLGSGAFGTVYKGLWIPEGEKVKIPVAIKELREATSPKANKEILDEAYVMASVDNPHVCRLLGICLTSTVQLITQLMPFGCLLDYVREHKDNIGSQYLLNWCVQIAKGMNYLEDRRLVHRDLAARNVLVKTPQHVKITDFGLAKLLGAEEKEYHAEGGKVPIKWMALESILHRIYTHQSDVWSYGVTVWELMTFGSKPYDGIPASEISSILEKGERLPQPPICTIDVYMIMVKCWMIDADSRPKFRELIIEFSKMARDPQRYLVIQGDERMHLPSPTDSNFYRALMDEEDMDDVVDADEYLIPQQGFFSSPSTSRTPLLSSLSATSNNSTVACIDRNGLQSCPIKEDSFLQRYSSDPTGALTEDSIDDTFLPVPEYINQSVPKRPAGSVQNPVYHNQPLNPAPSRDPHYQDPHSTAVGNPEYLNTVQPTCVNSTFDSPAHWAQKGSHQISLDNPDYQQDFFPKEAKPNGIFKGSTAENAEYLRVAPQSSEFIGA
EGFR L858R/C797S, sequence (P00533 25-1210 C797S/L858R): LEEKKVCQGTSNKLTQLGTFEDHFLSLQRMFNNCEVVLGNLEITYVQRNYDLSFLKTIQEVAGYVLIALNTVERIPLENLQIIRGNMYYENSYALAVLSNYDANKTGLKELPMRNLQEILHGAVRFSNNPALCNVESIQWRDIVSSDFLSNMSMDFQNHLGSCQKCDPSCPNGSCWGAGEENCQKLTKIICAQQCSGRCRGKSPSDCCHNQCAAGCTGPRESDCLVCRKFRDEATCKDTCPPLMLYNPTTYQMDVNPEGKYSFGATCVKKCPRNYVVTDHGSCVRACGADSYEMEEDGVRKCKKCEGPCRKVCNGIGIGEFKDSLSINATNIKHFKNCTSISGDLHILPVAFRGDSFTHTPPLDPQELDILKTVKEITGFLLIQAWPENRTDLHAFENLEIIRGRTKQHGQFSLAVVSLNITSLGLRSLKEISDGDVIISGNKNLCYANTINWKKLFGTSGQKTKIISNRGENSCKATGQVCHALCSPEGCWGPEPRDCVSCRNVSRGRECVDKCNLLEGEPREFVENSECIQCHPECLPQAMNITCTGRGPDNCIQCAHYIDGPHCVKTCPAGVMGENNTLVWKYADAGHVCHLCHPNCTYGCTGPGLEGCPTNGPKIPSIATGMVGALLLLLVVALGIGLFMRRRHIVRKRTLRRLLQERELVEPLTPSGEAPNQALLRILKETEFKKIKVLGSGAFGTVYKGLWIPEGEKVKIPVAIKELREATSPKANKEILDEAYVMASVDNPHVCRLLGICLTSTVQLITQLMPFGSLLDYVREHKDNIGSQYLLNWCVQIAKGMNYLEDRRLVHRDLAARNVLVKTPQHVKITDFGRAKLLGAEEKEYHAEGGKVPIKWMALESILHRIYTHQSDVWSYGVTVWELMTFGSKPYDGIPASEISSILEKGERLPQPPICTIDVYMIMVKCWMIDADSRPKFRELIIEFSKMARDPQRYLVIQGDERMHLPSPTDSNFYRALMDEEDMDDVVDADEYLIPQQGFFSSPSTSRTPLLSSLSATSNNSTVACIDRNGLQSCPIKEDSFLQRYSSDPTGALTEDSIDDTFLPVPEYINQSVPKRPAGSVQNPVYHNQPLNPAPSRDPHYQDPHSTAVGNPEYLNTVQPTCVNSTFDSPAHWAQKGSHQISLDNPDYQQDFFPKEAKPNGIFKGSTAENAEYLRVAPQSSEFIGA
EGFR Del19/T790M/C797S, sequence (P00533 with tags, fused parts or gaps DEL746-750/T790M/C797S): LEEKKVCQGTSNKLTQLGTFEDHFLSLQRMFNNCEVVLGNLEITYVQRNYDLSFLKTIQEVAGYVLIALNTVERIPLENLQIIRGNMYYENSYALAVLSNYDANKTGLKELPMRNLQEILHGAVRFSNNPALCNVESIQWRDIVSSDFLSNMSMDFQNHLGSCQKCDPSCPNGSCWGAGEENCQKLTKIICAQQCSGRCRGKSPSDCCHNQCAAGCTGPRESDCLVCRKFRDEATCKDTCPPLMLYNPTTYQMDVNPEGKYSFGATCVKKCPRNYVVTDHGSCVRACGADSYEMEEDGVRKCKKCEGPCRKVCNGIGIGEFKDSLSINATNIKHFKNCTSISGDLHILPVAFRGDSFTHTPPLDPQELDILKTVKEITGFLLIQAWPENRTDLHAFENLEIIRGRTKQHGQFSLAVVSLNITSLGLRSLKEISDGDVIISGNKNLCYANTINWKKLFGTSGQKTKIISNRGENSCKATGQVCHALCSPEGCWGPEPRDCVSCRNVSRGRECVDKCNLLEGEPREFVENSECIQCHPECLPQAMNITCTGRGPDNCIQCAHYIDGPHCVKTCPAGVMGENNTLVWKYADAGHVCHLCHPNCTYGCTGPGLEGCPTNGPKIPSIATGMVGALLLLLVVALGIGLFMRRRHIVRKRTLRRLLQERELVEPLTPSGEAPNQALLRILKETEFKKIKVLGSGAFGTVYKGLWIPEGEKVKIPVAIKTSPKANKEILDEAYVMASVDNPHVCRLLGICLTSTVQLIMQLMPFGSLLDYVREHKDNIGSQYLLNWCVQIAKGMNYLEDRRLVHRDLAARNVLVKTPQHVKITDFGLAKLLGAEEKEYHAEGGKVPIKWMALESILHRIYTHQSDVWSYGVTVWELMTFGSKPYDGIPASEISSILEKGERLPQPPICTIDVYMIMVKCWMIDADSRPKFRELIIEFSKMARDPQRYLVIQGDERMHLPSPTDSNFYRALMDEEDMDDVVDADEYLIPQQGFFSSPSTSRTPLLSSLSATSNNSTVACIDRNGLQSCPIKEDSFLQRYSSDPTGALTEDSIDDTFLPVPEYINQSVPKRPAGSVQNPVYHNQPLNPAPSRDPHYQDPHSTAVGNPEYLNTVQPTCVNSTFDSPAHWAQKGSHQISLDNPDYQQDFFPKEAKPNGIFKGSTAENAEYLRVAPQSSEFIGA

SMILES	IC50 (EGFR wildtype (WT); IC50 WT (nM), 100 μM ATP) [nM]	IC50 (EGFR wildtype (WT); [1]) [nM]	IC50 (EGFR L858R/T790M/C797S; [2]) [nM]	IC50 (EGFR L858R/T790M/C797S; [3]) [nM]	IC50 (EGFR Del19/T790M/C797S; [4]) [nM]	IC50 (EGFR Del19/T790M/C797S; [5]) [nM]	IC50 (EGFR L858R/C797S; [6]) [nM]	IC50 (EGFR L858R/C797S; [7]) [nM]	IC50 (EGFR Del19/C797S; [8]) [nM]	IC50 (EGFR Del19/C797S; [9]) [nM]
CC(=O)N1CCC(n2cc(C#Cc3cnc(Nc4ccnc(-c5cnn(S(=O)(=O)C6CC6)c5)n4)cc3N3CCC(C)(CO)CC3)cn2)CC1 [Example 110, 1-(4-(4-((6-((2-(1-(Cyclopropylsulfonyl)-1H-pyrazol-4-yl)pyrimidin-4-yl)amino)-4-(4-(hydroxymethyl)-4-methylpiperidin-1-yl)pyridin-3-yl)ethynyl)-1H-pyrazol-1-yl)piperidin-1-yl)ethan-1-one]	296	2.8	1.3	0.6	1.2	1.1	2.7	0.8	1.7	1.8
CC(=O)N1CCC(n2cc(C#Cc3cnc(Nc4ccnc(-c5cnn(S(=O)(=O)C6CC6)c5)n4)cc3N3CCC(F)(CO)CC3)cn2)CC1 [Example 111, 1-(4-(4-((6-((2-(1-(Cyclopropylsulfonyl)-1H-pyrazol-4-yl)pyrimidin-4-yl)amino)-4-(4-fluoro-4-(hydroxymethyl)piperidin-1-yl)pyridin-3-yl)ethynyl)-1H-pyrazol-1-yl)piperidin-1-yl)ethan-1-one]	4380	6	1.3	0.5	0.9	0.8	4.7	1.2	2	2
CC(=O)N1CCC(n2cc(C#Cc3cnc(Nc4ccnc(-c5cnn(S(=O)(=O)C6CC6)c5)n4)cc3N3CCC(F)CC3)cn2)CC1 [Example 112, 1-(4-(4-((6-((2-(1-(Cyclopropylsulfonyl)-1H-pyrazol-4-yl)pyrimidin-4-yl)amino)-4-(4-fluoropiperidin-1-yl)pyridin-3-yl)ethynyl)-1H-pyrazol-1-yl)piperidin-1-yl)ethan-1-one]	> 10000	21.3	2.8	1.1	1.5	1.5	17.1	2.8	5.2	4.6
COC1CCN(c2cc(Nc3ccnc(-c4cnn(S(=O)(=O)C5CC5)c4)n3)ncc2C#Cc2cnn(C3CCN(C(C)=O)CC3)c2)CC1 [Example 113, 1-(4-(4-((6-((2-(1-(Cyclopropylsulfonyl)-1H-pyrazol-4-yl)pyrimidin-4-yl)amino)-4-(4-methoxypiperidin-1-yl)pyridin-3-yl)ethynyl)-1H-pyrazol-1-yl)piperidin-1-yl)ethan-1-one]	7550	12	2.9	0.8	1.3	1.3	11.3	2.6	4	3.2
CC(=O)N1CCC(n2cc(C#Cc3cnc(Nc4ccnc(-c5cnn(S(=O)(=O)C6CC6)c5)n4)cc3N3CCCC(O)C3)cn2)CC1 (centres unmarked) [Example 114, 1-(4-(4-((6-((2-(1-(Cyclopropylsulfonyl)-1H-pyrazol-4-yl)pyrimidin-4-yl)amino)-4-(3-hydroxypiperidin-1-yl)pyridin-3-yl)ethynyl)-1H-pyrazol-1-yl)piperidin-1-yl)ethan-1-one]	> 10000	17.4	1.7	0.6	0.5	0.5	13.7	2.6	9.5	5.4
CC(=O)N1CCC(n2cc(C#Cc3cnc(Nc4ccnc(-c5cnn(S(=O)(=O)C6CC6)c5)n4)cc3N3CCCC(CO)C3)cn2)CC1 (centres unmarked) [Example 115, 1-(4-(4-((6-((2-(1-(Cyclopropylsulfonyl)-1H-pyrazol-4-yl)pyrimidin-4-yl)amino)-4-(3-(hydroxymethyl)piperidin-1-yl)pyridin-3-yl)ethynyl)-1H-pyrazol-1-yl)piperidin-1-yl)ethan-1-one]	> 10000	19.6	2.3	0.9	1.2	0.9	15.6	2.9	8.1	5.4
CN(C)CCn1cc(C#Cc2cnc(Nc3ccnc(-c4cnn(S(=O)(=O)C5CC5)c4)n3)cc2N2CCC(C)(CO)CC2)cn1 [Example 116, (1-(2-((2-(1-(Cyclopropylsulfonyl)-1H-pyrazol-4-yl)pyrimidin-4-yl)amino)-5-((1-(2-(dimethylamino)ethyl)-1H-pyrazol-4-yl)ethynyl)pyridin-4-yl)-4-methylpiperidin-4-yl)methanol]	143	1	0.3	0.2	0.4	0.3	1	0.2	0.6	0.3
CN(C)CCn1cc(C#Cc2cnc(Nc3ccnc(-c4cnn(S(=O)(=O)C5CC5)c4)n3)cc2N2CCC(F)(CO)CC2)cn1 [Example 117, (1-(2-((2-(1-(Cyclopropylsulfonyl)-1H-pyrazol-4-yl)pyrimidin-4-yl)amino)-5-((1-(2-(dimethylamino)ethyl)-1H-pyrazol-4-yl)ethynyl)pyridin-4-yl)-4-fluoropiperidin-4-yl)methanol]	1020	3.7	0.3	0.2	0.4	0.3	3.4	0.3	0.7	0.4
CN(C)CCn1cc(C#Cc2cnc(Nc3ccnc(-c4cnn(S(=O)(=O)C5CC5)c4)n3)cc2N2CCCC(CO)C2)cn1 (centres unmarked) [Example 118, (1-(2-((2-(1-(Cyclopropylsulfonyl)-1H-pyrazol-4-yl)pyrimidin-4-yl)amino)-5-((1-(2-(dimethylamino)ethyl)-1H-pyrazol-4-yl)ethynyl)pyridin-4-yl)piperidin-3-yl)methanol]	2690	10.2	0.5	0.2	0.6	0.5	8.5	0.6	0.8	0.7
CN(C)CCCn1cc(C#Cc2cnc(Nc3ccnc(-c4cnn(S(=O)(=O)C5CC5)c4)n3)cc2N2CCC(C)(CO)CC2)cn1 [Example 120, (1-(2-((2-(1-(Cyclopropylsulfonyl)-1H-pyrazol-4-yl)pyrimidin-4-yl)amino)-5-((1-(3-(dimethylamino)propyl)-1H-pyrazol-4-yl)ethynyl)pyridin-4-yl)-4-methylpiperidin-4-yl)methanol]	212	1.6	0.5	0.3	0.7	0.7	1.3	0.3	0.8	0.5
CN(C)CCCn1cc(C#Cc2cnc(Nc3ccnc(-c4cnn(S(=O)(=O)C5CC5)c4)n3)cc2N2CCC(F)(CO)CC2)cn1 [Example 121, (1-(2-((2-(1-(Cyclopropylsulfonyl)-1H-pyrazol-4-yl)pyrimidin-4-yl)amino)-5-((1-(3-(dimethylamino)propyl)-1H-pyrazol-4-yl)ethynyl)pyridin-4-yl)-4-fluoropiperidin-4-yl)methanol]	783	3.1	0.3	0.1	0.3	0.3	4.1	0.3	0.5	0.3
